# Test system: E. faecium ATCC 700221
# Assay type: cell-based, Enterococcus faecium
# Details: ATCC 700221, 18 h
# Method: (§1) The Acinetobacter baumannii ATCC BAA-1605, Enterococcus faecium ATCC 700221, Klebsiella aerogenes ATCC 13048, Klebsiella pneumoniae ATCC 700603, Pseudomonas aeruginosa ATCC 9027, Staphylococcus aureus ATCC 33591, Candida glabrata ATCC 15126 strains were acquired from the American Type Culture Collection (ATCC, Manassas, USA). All the strains were stored at −80 °C in Roti-Store cryo vials (Carl Roth GmbH, Germany) and before the tests were transferred into fresh Mueller–Hinton broth (MHB, Becton Dickinson, Poland) for bacteria or RPMI-1640 (Sigma-Aldrich, Germany) for fungi and incubated for 24 h at 37 °C. Then, the cultures were cultured on the Mueller–Hinton agar (BioMaxima, Poland) or Sabouraud dextrose agar (SDA, BioMaxima) plates, respectively, and incubated as just mentioned. For microbiological assays, a minimum of three to five well-isolated colonies of the same morphological type were carefully picked from the agar cultures. These colonies were transferred with sterile loop into fresh microbiological medium and incubated with shaking (100 rpm) at 37 °C until they reached logarithmic phase of growth. Cell densities for all assays were adjusted through spectrophotometric measurements (Multiskan GO Microplate Spectrophotometer, Thermo Fisher Scientific, Finland) at 600 and 530 nm for bacteria and fungi, respectively.
# (§2) The MICs were determined by broth microdilution method according to the Clinical and Laboratory Standard Institute guidelines. For this purpose, initial inoculums of bacteria (5 × 10^5 CFU/mL) in MHB and yeasts (2 × 10^3 CFU/mL) in RPMI-1640 with 2% D-glucose were exposed to the ranging concentration of lipopeptides (1–512 μg/mL) and incubated at 37 °C for 18 h and 24 h, respectively. The experiments were conducted on 96-well microtiter polystyrene plates (Kartell, Italy). The growth was assessed visually after incubation and the MIC was assumed as the lowest peptide concentration at which a noticeable growth of microorganisms was inhibited. Benzalkonium chloride (Sigma-Aldrich, Germany) was used as reference compound. All experiments were conducted in triplicate.
row,MIC [µg/mL],Compound
1,16,"CCCCCCCCCCCCCC(=O)N[C@@H](CCCCN)C(N)=O [Peptide 1M, C14-K-NH2]"
2,32,"CCCCCCCCCCCCCC(=O)N[C@@H](CCCC[N+](C)(C)C)C(N)=O [Peptide 1Mq, C14-K(Me3)^+-NH2]"
3,4,"CCCCCCCCCCCCCCCC(=O)N[C@@H](CCCCN)C(N)=O [Peptide 1P, C16-K-NH2]"

# Test system: S. aureus ATCC 33591
# Assay type: cell-based, Staphylococcus aureus
# Details: ATCC 33591, 18 h
# Method: as §1, §2
row,MIC [µg/mL],Compound
1,16,"CCCCCCCCCCCCCC(=O)N[C@@H](CCCCN)C(N)=O [Peptide 1M, C14-K-NH2]"
2,32,"CCCCCCCCCCCCCC(=O)N[C@@H](CCCC[N+](C)(C)C)C(N)=O [Peptide 1Mq, C14-K(Me3)^+-NH2]"
3,>512,"CCCCCCCCCCCCCCCC(=O)N[C@@H](CCCCN)C(N)=O [Peptide 1P, C16-K-NH2]"

# Test system: K. pneumoniae ATCC 700603
# Assay type: cell-based, Klebsiella pneumoniae
# Details: ATCC 700603, 18 h
# Method: as §1, §2
row,MIC [µg/mL],Compound
1,>512,"CCCCCCCCCCCCCC(=O)N[C@@H](CCCCN)C(N)=O [Peptide 1M, C14-K-NH2]"
2,>512,"CCCCCCCCCCCCCC(=O)N[C@@H](CCCC[N+](C)(C)C)C(N)=O [Peptide 1Mq, C14-K(Me3)^+-NH2]"
3,>512,"CCCCCCCCCCCCCCCC(=O)N[C@@H](CCCCN)C(N)=O [Peptide 1P, C16-K-NH2]"

# Test system: A. baumannii ATCC BAA 1605
# Assay type: cell-based, Acinetobacter baumannii
# Details: ATCC BAA 1605, 18 h
# Method: as §1, §2
row,MIC [µg/mL],Compound
1,>512,"CCCCCCCCCCCCCC(=O)N[C@@H](CCCCN)C(N)=O [Peptide 1M, C14-K-NH2]"
2,128,"CCCCCCCCCCCCCC(=O)N[C@@H](CCCC[N+](C)(C)C)C(N)=O [Peptide 1Mq, C14-K(Me3)^+-NH2]"

# Test system: P. aeruginosa ATCC 9027
# Assay type: cell-based, Pseudomonas aeruginosa
# Details: ATCC 9027, 18 h
# Method: as §1, §2
row,MIC [µg/mL],Compound
1,>512,"CCCCCCCCCCCCCC(=O)N[C@@H](CCCCN)C(N)=O [Peptide 1M, C14-K-NH2]"
2,128,"CCCCCCCCCCCCCC(=O)N[C@@H](CCCC[N+](C)(C)C)C(N)=O [Peptide 1Mq, C14-K(Me3)^+-NH2]"
3,>512,"CCCCCCCCCCCCCCCC(=O)N[C@@H](CCCCN)C(N)=O [Peptide 1P, C16-K-NH2]"

# Test system: K. aerogenes ATCC 13048
# Assay type: cell-based, Klebsiella aerogenes
# Details: ATCC 13048, 18 h
# Method: as §1, §2
row,MIC [µg/mL],Compound
1,>512,"CCCCCCCCCCCCCC(=O)N[C@@H](CCCCN)C(N)=O [Peptide 1M, C14-K-NH2]"
2,256,"CCCCCCCCCCCCCC(=O)N[C@@H](CCCC[N+](C)(C)C)C(N)=O [Peptide 1Mq, C14-K(Me3)^+-NH2]"
3,>512,"CCCCCCCCCCCCCCCC(=O)N[C@@H](CCCCN)C(N)=O [Peptide 1P, C16-K-NH2]"

# Test system: C. glabrata ATCC 15126
# Assay type: cell-based, Candida glabrata
# Details: ATCC 15126, 24 h
# Method: as §1, §2
row,MIC [µg/mL],Compound
1,>512,"CCCCCCCCCCCCCC(=O)N[C@@H](CCCCN)C(N)=O [Peptide 1M, C14-K-NH2]"
2,32,"CCCCCCCCCCCCCC(=O)N[C@@H](CCCC[N+](C)(C)C)C(N)=O [Peptide 1Mq, C14-K(Me3)^+-NH2]"
3,>512,"CCCCCCCCCCCCCCCC(=O)N[C@@H](CCCCN)C(N)=O [Peptide 1P, C16-K-NH2]"

# Test system: human red blood cells (RBCs)
# Assay type: cell-based
# Details: red cells of human
# Method: The hemolysis assay was conducted using a procedure described previously. For this purpose, human red blood cells (RBCs) isolated from K2EDTA Single Donor Human Whole blood (Innovative Research, Inc, MI, USA) were rinsed with Phosphate-buffer saline (PBS, pH 7.4±0.05, composition - KCl 2.7 mM, NaCl 140 mM, phosphate 10mM; AppliChem GmbH, Germany) by centrifugation for 10 min at 800 × g. This process was repeated 3 times and the RBCs were resuspended in PBS. Then, the stock solution of RBCs was added to the serial dilution of lipopeptides on 96-well polystyrene plates to reach a final volume of 100 μL with a 4% concentration of erythrocytes (v/v) and a concentration range of 1-512 μg/mL of tested compounds. The control wells for 0% and 100% hemolysis consisted of RBCs suspended in PBS and 1% of Triton X-100 (Sigma-Aldrich, Germany), respectively. Benzalkonium chloride (Sigma-Aldrich, Germany) was used as reference compound. Subsequently, the plates were incubated for 60 min at 37 °C and then centrifuged at 800 × g for 10 min at 4 °C (Sorvall ST […] Centrifuge, Thermo Scientific). The supernatant was carefully […] to new microtiter plates. The release of hemoglobin was monitored absorbance measurements at 540 nm (MultiskanTM GO Microplate Spectrophotometer, Thermo Scientific). All experiments were conducted in triplicate. HC50 was calculated using an ic50.tk tool.
row,HC50 [µg/mL],Compound
1,477.61 ± 28.02,"CCCCCCCCCCCCCC(=O)N[C@@H](CCCCN)C(N)=O [Peptide 1M, C14-K-NH2]"
2,88.25 ± 1.57,"CCCCCCCCCCCCCC(=O)N[C@@H](CCCC[N+](C)(C)C)C(N)=O [Peptide 1Mq, C14-K(Me3)^+-NH2]"
3,>512,"CCCCCCCCCCCCCCCC(=O)N[C@@H](CCCCN)C(N)=O [Peptide 1P, C16-K-NH2]"

# Test system: human keratinocyte cell line (HaCaT)
# Assay type: cell-based
# Details: 24 h
# Method: The immortalized human keratinocyte cell line (HaCaT), obtained from CLS (Cell Line Service, Germany) was cultured in DMEM-high glucose (Dulbecco’s Modified Eagle Medium) supplemented with 10% fetal bovine serum, 2 mM L-glutamine, 100 U/mL penicillin and 100 μg/mL streptomycin (Sigma-Aldrich; Merck KGaA) at 37 °C in a humidified atmosphere with 5% CO2. Cells were trypsinized, and the medium was renewed 2–3 times per week. The cytotoxicity of compounds was assessed by colorimetric CellTilter 96® Aqueous One Solution Cell Proliferation Assay (Promega, USA), containing a tetrazolium compound according to the manufacturer’s instructions. In brief, 7 × 10^3 HaCaT cells per well were plated on 96-well plates and incubated per night to adhere to the cultured dishes. After that time, different concentrations of the tested compounds ranging from 512 to 1 μg/mL were applied to the wells. Every compound was medium-soluble at 37 °C; thus, the non-treated cells were negative control. Serial dilutions of the tested compounds were always prepared before use. Cells were incubated with drugs for 24 h, and then, 20 μL of the CellTiter 96®AqueousOne Solution Reagent was added to each well containing treated cells in 100 µl of culture medium. After 4 h of incubation at 37 °C, the absorbance at 490 nm was recorded using a microplate reader (Epoch, BioTek Instruments, USA). The quantity of formazan product as measured by the amount of 490 nm absorbance is directly proportional to the number of living cells in culture. Benzalkonium chloride (Sigma-Aldrich, Germany) was used as reference compound. At least three independent experiments with two replicates were conducted for each concentration of a compound, and the IC50 values were calculated using GraphPad Prism 8 software.
row,Compound,IC50 [µg/mL]
1,"CCCCCCCCCCCCCC(=O)N[C@@H](CCCCN)C(N)=O [Peptide 1M, C14-K-NH2]",4.33 ± 1.12
2,"CCCCCCCCCCCCCC(=O)N[C@@H](CCCC[N+](C)(C)C)C(N)=O [Peptide 1Mq, C14-K(Me3)^+-NH2]",24.81 ± 3.88
3,"CCCCCCCCCCCCCCCC(=O)N[C@@H](CCCCN)C(N)=O [Peptide 1P, C16-K-NH2]",1.74 ± 0.49
